Reference: ChEMBL document CHEMBL5653615 (J Biol Chem, 2013)

Key:
[1] = target: Serine/threonine-protein kinase 26 (Homo sapiens) (UniProt Q9P289); assay: Inhibition of human MST4 at 18.6 nM by HotSpot assay relative to control
[2] = target: T1, Tyrosine-protein kinase Tec (Homo sapiens) (UniProt P42680); assay: Inhibition of human TEC at 18.6 nM by HotSpot assay relative to control
T1 sequence (whole entry): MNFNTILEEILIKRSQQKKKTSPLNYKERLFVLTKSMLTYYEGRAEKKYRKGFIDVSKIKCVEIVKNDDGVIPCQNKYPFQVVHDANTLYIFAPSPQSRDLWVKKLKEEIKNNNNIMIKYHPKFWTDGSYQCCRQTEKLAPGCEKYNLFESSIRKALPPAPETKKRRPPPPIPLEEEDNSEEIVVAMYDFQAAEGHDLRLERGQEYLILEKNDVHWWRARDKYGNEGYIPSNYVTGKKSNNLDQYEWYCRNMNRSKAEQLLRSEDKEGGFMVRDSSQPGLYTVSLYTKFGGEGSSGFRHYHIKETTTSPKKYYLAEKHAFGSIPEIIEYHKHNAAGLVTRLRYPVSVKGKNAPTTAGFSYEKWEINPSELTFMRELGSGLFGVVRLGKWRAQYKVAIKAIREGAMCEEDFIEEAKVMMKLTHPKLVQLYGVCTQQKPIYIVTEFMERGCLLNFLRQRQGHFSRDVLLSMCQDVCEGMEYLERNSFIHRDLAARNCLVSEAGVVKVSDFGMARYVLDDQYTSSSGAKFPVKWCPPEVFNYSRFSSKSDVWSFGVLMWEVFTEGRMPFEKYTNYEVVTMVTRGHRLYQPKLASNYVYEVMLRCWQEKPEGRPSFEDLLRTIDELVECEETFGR

[3] = target: Serine/threonine-protein kinase PAK 5 (Homo sapiens) (UniProt Q9P286); assay: Inhibition of human PAK5 at 18.6 nM by HotSpot assay relative to control
Chain of Serine/threonine-protein kinase PAK 5 (Homo sapiens) (Q9P286 whole entry, looked up): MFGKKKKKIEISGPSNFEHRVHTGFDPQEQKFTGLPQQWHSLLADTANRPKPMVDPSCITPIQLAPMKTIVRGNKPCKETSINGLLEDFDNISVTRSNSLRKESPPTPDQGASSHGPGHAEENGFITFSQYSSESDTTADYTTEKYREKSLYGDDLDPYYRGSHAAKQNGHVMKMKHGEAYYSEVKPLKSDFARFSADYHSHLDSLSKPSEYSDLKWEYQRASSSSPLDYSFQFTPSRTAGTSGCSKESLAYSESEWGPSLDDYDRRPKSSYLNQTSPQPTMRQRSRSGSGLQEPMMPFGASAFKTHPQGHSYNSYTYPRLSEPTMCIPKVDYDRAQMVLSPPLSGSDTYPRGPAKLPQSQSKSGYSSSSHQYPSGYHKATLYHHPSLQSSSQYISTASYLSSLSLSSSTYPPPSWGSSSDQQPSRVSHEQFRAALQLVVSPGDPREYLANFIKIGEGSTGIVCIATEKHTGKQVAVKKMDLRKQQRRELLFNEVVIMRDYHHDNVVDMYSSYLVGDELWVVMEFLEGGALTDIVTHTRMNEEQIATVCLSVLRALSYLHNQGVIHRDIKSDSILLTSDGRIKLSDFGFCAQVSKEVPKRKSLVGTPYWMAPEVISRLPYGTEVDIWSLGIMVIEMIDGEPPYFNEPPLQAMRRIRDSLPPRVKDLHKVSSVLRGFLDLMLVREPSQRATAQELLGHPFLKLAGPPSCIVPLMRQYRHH

[4] = target: Tyrosine-protein kinase FRK (Homo sapiens) (UniProt P42685); assay: Inhibition of human FRK at 18.6 nM by HotSpot assay relative to control
Chain of Tyrosine-protein kinase FRK (Homo sapiens) (P42685 whole entry): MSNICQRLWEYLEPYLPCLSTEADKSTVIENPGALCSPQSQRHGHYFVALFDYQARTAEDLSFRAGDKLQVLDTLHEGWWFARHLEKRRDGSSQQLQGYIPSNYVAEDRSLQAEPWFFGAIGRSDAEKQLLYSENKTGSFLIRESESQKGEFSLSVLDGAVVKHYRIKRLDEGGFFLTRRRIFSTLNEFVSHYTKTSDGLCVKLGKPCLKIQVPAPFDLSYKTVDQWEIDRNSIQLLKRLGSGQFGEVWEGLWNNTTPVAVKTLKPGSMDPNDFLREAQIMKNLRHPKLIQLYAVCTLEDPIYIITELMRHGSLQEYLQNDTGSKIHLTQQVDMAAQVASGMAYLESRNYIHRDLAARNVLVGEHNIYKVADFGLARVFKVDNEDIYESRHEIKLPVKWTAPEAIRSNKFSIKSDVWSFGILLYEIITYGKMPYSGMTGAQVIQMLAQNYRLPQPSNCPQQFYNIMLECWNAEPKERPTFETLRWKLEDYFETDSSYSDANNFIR

[5] = target: T2, Ephrin type-B receptor 3 (Homo sapiens) (UniProt P54753); assay: Inhibition of human EPHB3 at 1.82 nM by HotSpot assay relative to control
T2 sequence (whole entry): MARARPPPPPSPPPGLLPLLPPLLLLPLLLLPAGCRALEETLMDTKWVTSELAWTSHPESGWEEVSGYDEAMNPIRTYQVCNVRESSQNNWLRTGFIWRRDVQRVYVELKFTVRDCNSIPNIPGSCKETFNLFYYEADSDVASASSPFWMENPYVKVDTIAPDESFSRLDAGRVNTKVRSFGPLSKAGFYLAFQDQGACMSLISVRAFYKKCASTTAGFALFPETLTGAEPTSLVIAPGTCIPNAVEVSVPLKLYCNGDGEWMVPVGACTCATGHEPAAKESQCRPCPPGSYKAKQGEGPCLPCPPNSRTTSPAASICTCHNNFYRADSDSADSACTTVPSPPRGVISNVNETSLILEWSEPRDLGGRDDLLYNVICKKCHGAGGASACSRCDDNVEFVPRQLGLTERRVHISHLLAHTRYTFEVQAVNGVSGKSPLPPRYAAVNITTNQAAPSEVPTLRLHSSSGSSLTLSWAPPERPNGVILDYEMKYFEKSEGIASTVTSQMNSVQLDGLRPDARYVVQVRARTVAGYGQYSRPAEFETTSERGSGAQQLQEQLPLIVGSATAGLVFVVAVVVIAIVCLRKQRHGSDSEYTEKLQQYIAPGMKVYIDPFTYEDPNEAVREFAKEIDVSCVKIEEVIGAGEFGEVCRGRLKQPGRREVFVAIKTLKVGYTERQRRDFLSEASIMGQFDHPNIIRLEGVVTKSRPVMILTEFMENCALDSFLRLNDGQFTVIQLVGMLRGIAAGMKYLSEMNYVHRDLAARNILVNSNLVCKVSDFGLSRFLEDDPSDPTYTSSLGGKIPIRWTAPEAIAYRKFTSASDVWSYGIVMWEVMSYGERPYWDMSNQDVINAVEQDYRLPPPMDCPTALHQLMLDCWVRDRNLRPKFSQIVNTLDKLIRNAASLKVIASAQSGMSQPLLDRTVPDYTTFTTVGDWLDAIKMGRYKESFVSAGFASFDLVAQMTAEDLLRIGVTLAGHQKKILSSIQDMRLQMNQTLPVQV

[6] = target: Casein kinase I isoform epsilon (Homo sapiens) (UniProt P49674); assay: Inhibition of human CK1epsilon at 1.82 nM by HotSpot assay relative to control
Chain of Casein kinase I isoform epsilon (Homo sapiens) (P49674 whole entry, looked up, canonical isoform): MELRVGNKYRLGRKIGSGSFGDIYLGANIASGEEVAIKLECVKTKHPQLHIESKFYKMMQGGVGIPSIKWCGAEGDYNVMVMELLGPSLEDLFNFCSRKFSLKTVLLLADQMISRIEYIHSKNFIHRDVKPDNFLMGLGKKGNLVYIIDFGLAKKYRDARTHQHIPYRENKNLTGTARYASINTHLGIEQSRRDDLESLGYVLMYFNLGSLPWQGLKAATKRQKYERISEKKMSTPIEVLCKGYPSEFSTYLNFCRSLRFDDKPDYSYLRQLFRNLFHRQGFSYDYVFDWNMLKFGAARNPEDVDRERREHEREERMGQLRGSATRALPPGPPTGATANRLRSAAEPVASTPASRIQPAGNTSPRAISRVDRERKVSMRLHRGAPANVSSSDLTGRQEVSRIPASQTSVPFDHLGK

[7] = target: Tyrosine-protein kinase Fgr (Homo sapiens) (UniProt P09769); assay: Inhibition of human FGR at 1.82 nM by HotSpot assay relative to control
Chain of Tyrosine-protein kinase Fgr (Homo sapiens) (P09769 2-529 limits assumed): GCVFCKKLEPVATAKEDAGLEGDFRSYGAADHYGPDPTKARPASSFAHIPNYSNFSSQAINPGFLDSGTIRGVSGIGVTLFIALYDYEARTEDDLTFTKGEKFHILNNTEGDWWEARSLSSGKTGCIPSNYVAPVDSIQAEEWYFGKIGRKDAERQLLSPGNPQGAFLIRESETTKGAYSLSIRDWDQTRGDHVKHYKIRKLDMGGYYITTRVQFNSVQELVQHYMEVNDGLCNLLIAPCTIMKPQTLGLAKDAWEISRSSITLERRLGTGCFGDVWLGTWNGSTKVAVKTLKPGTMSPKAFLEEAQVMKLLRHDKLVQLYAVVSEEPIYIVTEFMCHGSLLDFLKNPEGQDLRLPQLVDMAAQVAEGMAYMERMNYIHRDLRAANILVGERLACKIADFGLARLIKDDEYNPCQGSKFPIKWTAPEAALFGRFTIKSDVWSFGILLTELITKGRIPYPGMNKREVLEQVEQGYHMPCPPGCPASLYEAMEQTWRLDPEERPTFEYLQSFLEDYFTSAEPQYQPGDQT

[8] = target: T3, Dual serine/threonine and tyrosine protein kinase (Homo sapiens) (UniProt Q6XUX3); assay: Inhibition of human RIPK5 at 1.82 nM by HotSpot assay relative to control
T3 sequence (whole entry): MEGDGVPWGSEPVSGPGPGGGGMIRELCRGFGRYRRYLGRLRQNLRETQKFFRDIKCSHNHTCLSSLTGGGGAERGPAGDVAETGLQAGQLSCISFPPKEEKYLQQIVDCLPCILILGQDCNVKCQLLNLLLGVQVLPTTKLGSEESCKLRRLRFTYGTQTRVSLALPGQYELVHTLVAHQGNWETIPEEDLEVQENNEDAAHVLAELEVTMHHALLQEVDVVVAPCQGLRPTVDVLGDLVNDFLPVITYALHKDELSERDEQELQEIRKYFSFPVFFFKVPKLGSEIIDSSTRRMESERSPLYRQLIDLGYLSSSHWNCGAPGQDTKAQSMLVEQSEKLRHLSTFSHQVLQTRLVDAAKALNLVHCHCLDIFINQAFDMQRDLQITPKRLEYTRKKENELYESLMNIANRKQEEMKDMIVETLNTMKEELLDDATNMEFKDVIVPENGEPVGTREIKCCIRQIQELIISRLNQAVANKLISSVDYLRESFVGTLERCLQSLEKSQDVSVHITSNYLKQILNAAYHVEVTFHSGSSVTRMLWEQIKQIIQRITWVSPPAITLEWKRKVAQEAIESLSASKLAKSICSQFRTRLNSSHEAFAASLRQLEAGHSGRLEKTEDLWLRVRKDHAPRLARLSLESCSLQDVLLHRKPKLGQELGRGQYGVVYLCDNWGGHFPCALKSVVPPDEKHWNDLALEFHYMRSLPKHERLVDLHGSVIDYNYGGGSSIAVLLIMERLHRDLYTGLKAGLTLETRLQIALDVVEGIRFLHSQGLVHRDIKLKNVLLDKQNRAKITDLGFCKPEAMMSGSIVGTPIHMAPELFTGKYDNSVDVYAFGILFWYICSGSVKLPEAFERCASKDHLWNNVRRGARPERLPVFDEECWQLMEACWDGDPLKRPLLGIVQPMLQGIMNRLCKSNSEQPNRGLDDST

[9] = target: Cyclin-dependent kinase 2/cyclin E1 (Homo sapiens) (UniProt P24864+P24941); assay: Inhibition of human CDK2/cyclin E at 1.82 nM by HotSpot assay relative to control; format: protein-complex assay

Chain of Serine/threonine-protein kinase 26 (Homo sapiens) (Q9P289 2-416 limits assumed): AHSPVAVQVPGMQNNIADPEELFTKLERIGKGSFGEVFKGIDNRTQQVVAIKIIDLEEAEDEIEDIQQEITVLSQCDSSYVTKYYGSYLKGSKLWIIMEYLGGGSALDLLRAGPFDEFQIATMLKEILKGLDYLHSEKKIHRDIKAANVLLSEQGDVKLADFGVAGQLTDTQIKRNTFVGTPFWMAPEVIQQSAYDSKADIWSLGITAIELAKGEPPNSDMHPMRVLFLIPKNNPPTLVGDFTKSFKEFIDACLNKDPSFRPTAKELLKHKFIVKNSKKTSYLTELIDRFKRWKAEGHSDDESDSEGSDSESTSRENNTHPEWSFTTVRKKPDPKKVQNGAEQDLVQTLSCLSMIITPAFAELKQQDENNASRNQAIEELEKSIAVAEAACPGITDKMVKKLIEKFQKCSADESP

| inhibition [1] | inhibition [2] | inhibition [3] | inhibition [4] | inhibition [5] | inhibition [6] | inhibition [7] | inhibition [8] | inhibition [9] | SMILES |
| --- | --- | --- | --- | --- | --- | --- | --- | --- | --- |
| -2.21% | 2.21% | -1.6% | -0.1% | – | – | – | – | – | C[C@]1(O)C[C@@H](c2nc(-c3ccc4ccc(-c5ccccc5)nc4c3)c3c(N)nccn32)C1 |
| – | – | – | – | 2.89% | 1.26% | -3.39% | 4.61% | 3.51% | C[C@@]1(C(=O)Nc2ccc(F)nc2)CCCN1c1nc(Nc2cc(C3CC3)n[nH]2)c2cccn2n1 |
